Measurements from US11603387B2, “SOCS mimetics for the treatment of diseases” (UNIVERSITY OF FLORIDA RESEARCH FOUNDATION, INC., priority 2014, dated 2023).

Assays:
[1] = test system: SOCS1+/+ or SOCS1+/− CD4+CD25− T cells; assay: CD4+ T cell proliferation (CFSE labeling, cell counts, 3H thymidine incorporation); format: cell-based, mouse; settings: αCD3 + SOCS1-KIR peptide (20 μM), 72 h
Procedure: (§1) FIGS. 5A-5D. […] (FIGS. 5A and 5B) SOCS1^+/+ or SOCS1^+/− CD4^+CD25^− T cells were stimulated with αCD3 antibodies alone or with αCD3+SOCS1-KIR peptide (20 μM) for 72 h. (FIG. 5A) CD25 expressing cells were assessed by flow cytometry. Results are representative of 4 independent experiments. (FIG. 5B) Proliferation was assessed by CFSE labeling and flow cytometry, cell counts, and ^3[H] thymidine incorporation. n=4. (FIGS. 5C and 5D) SOCS1^+/+ or SOCS1^+/− CD4^+CD25^− T cells were placed under Th17 inducing conditions in the absence or presence of SOCS1-KIR peptide (20 μM) (FIG. 5C) IFNγ expression, relative to β-actin., was assessed by qPCR (left) and ELISA (right) (n=4). (FIG. 5D) pSTAT1 and STAT1 protein expressions were assessed by western blotting. Results are representative of 4 independent experiments. Statistical comparisons were performed using Mann-Whitney U test. (*P<0.05). iTh17=Th17 inducing conditions, WT=SOCS1^+/+, and HT=SOCS1^+/−.
CD4^+ T cell proliferation was assessed by CFSE staining, ^3H thymidine incorporation, and absolute cell counts. MACS purified CD4^+CD25^− T cells, isolated from LN and spleen suspension, were stimulated in triplicate (96 well round-bottom plate; 1×10^5 cells/well) with 10 μg/ml anti-CD3 (BD Pharmingen; clone: 145.2C11) alone or in addition to 1.5 μg/ml anti-CD28 (BD Pharmingen; clone 37.51) at 37° C. (5% CO2) in RPMI 1640 (Cellgro; 10-040-CV) containing 10% FBS (INVITROGEN™ GIBCO®), 1% antibiotic/antimycotic (Herndon, Va.), and 50 μM β-ME (MP Biomedicals, Solon, Ohio). After 72 h of incubation, cell cultures were either pulsed with 0.5 mCi ^3H thymidine (GE Healthcare; Arlington Heights, Ill.) or counted and harvested for assessment by flow cytometry. In cultures analyzed by flow cytometry, T lymphocytes were labeled with 10 μg/ml CFSE prior to culture as previously described (Cozzo et al. 2003). ^3H thymidine pulsed T lymphocytes were harvested 16-18 hours after initial pulse followed by the ^3H thymidine incorporation assessment using a Beckman LS3801 Liquid Scintillation System. […]

STAT1 = assay: pSTAT1/STAT1 western blotting under Th17 inducing conditions; format: cell-based, mouse; settings: SOCS1+/− CD4+ T cells, SOCS1-KIR peptide (20 μM)
Procedure: as §1
MACS purified CD4^+CD25^− T cells were stimulated with anti-CD3 Ab (10 μg/ml), anti-CD3 (10 μg/ml) and anti-CD28 (1.5 μg/ml) Abs, or Th17 inducing conditions in the presence or absence of SOCS1-KIR peptide as previously described. […] Equal quantities of protein were loaded and separated in 4%-12% SDS-PAGE gel (Biorad). […]

JAK2 = JAK2 (Homo sapiens, UniProt O60674); assay: Binding to the activation loop of JAK2
EAE = settings: administered in vivo; cited from earlier work

Chain of JAK2 (O60674 whole entry, species assumed): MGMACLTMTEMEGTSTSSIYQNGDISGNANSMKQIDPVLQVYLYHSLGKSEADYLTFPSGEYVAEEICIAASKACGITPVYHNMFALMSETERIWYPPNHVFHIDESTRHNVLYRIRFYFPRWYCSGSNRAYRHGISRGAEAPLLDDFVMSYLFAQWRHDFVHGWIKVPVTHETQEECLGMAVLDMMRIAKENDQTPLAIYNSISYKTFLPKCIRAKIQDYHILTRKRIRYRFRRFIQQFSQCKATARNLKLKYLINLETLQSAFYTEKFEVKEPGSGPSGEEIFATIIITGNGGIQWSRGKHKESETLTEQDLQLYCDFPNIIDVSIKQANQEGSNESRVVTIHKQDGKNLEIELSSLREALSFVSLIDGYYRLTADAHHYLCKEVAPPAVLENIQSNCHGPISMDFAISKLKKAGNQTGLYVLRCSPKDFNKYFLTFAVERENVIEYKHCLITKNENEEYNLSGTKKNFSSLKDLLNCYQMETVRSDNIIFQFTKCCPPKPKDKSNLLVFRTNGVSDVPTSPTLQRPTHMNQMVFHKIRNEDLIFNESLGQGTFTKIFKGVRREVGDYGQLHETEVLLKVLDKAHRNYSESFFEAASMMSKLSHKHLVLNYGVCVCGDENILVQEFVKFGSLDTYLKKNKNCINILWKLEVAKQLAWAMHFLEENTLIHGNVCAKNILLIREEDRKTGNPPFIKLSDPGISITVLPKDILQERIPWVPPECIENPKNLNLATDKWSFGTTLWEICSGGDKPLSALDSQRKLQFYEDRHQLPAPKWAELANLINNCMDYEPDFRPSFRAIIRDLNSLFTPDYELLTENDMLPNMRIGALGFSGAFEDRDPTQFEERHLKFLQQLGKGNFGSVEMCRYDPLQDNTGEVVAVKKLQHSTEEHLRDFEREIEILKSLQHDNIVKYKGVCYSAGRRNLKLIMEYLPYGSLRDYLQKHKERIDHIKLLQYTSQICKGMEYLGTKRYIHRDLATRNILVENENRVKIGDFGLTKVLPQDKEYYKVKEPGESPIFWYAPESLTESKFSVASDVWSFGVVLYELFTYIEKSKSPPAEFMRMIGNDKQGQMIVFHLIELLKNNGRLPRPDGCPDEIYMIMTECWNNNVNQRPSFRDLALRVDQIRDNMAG

## DTHFRTFRSHSDYRRI (SOCS1-KIR peptide) [SOCS1 mimetic peptide corresponding to the KIR region of SOCS1]
[1]; SOCS1+/− cells
  Activation and proliferation of αCD3 treated SOCS1+/− CD4+ T lymphocytes relative to WT: to levels comparable to WT receiving αCD3 stimulation
[1]; WT and SOCS1+/− T lymphocytes
  Proliferation by CFSE labeling: reduced proliferation
[1]
  Absolute cell counts and 3H thymidine incorporation: inhibition of T lymphocyte proliferation
STAT1
  STAT1 activation (phosphorylation): drastically reduced the enhanced STAT1 activation
JAK2
  Binding to and inhibition of JAK2: binds to and inhibits the function of JAK2
EAE
  Immune homeostasis and EAE prevention: could both regulate immune homeostasis and prevent EAE
